The structures appear in SMILES notation.

The values that follow come from patent US9487510B2, “Substituted heterocyclic acetamides as kappa opioid receptor (KOR) agonists” (Dr. Reddy's Laboratories Ltd., priority 2012, dated 2016).

In this test the target is human KOR receptor (Homo sapiens, UniProt P41145). Briefly: IP-One HTRF assay, potency of KOR agonists, dose-response in transiently transfected COS-7 cells. In kind it is cell-based. In general terms: Time-resolved FRET reads energy transfer from a long-lived donor to a nearby acceptor.
Chain of human KOR receptor (P41145 whole entry): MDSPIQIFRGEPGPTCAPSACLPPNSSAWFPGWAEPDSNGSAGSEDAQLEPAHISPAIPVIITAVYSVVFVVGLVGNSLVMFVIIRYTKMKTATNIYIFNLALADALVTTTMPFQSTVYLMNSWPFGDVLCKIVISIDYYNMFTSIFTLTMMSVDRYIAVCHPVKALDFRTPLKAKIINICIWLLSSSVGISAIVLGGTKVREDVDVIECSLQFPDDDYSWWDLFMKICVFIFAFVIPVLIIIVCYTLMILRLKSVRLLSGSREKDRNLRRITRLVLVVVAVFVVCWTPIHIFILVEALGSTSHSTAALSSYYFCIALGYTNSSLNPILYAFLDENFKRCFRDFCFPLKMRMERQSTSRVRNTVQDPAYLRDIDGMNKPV
Molecule `CN(C(=O)Cc1ccc2c(c1)NC(=O)CO2)[C@H](CN1CC[C@H](O)C1)c1cccc(OCC(=O)O)c1` [Example 167, 2-(3-((S)-2-((S)-3-hydroxypyrrolidin-1-yl)-1-(N-methyl-2-(3-oxo-3,4-dihydro-2H-benzo[b][1,4]oxazin-6-yl)acetamido)ethyl)phenoxy)acetic acid] registered an EC50 of at most 50 nM.
With `CN(C(=O)Cc1ccc2c(c1)NC(=O)CS2(=O)=O)[C@H](CN1CC[C@H](O)C1)c1cccc(OCC(N)=O)c1` [Example 168, N-((S)-1-(3-(2-amino-2-oxoethoxy)phenyl)-2-((S)-3-hydroxypyrrolidin-1-yl)ethyl)-2-(1,1-dioxido-3-oxo-3,4-dihydro-2H-benzo[b][1,4]thiazin-6-yl)-N-methylacetamide] the figure was at most 50 nM; with `CN(C(=O)Cc1ccc2c(c1)CC(=O)N2)[C@H](CN1CC[C@H](O)C1)c1cccc(OCC(=O)O)c1` [Example 169, 2-(3-((S)-2-((S)-3-hydroxypyrrolidin-1-yl)-1-(N-methyl-2-(2-oxoindolin-5-yl)acetamido)ethyl)phenoxy)acetic acid], at most 50 nM.
With `CN(C(=O)Cc1ccc2sc(=O)[nH]c2c1)[C@H](CN1CC[C@H](O)C1)c1cccc(OCC(N)=O)c1` [Example 170, N-((S)-1-(3-(2-amino-2-oxoethoxy)phenyl)-2-((S)-3-hydroxypyrrolidin-1-yl)ethyl)-N-methyl-2-(2-oxo-2,3-dihydrobenzo[d]thiazol-5-yl)acetamide] the figure was at most 50 nM.
With `CN(C(=O)Cc1ccc2ncc(=O)[nH]c2c1)[C@H](CN1CC[C@H](O)C1)c1cccc(OCC(=O)O)c1` [Example 171, 2-(3-((S)-2-((S)-3-hydroxypyrrolidin-1-yl)-1-(N-methyl-2-(3-oxo-3,4-dihydroquinoxalin-6-yl)acetamido)ethyl)phenoxy)acetic acid] the figure was at most 50 nM; with `CN(C(=O)Cc1ccc2c(c1)NC(=O)CS2)[C@H](CN1CC[C@H](O)C1)c1cccc(OCC(=O)O)c1` [Example 172, 2-(3-((S)-2-((S)-3-hydroxypyrrolidin-1-yl)-1-(N-methyl-2-(3-oxo-3,4-dihydro-2H-benzo[b][1,4]thiazin-6-yl)acetamido)ethyl)phenoxy)acetic acid], at most 50 nM.
Consider `CN(C(=O)Cc1ccc2c(c1)NC(=O)CO2)[C@H](CN1CC[C@H](O)C1)c1cccc(OCC(N)=O)c1` [Example 173, N-((S)-1-(3-(2-amino-2-oxoethoxy)phenyl)-2-((S)-3-hydroxypyrrolidin-1-yl)ethyl)-N-methyl-2-(3-oxo-3,4-dihydro-2H-benzo[b][1,4]oxazin-6-yl)acetamide], for which the EC50 is at most 50 nM.
Under `CN(C(=O)Cc1ccc2c(c1)NC(=O)CS2(=O)=O)[C@H](CN1CC[C@H](O)C1)c1cccc(OCC(=O)NS(C)(=O)=O)c1` [Example 174, 2-(1,1-dioxido-3-oxo-3,4-dihydro-2H-benzo[b][1,4]thiazin-6-yl)-N-((S)-2-((S)-3-hydroxypyrrolidin-1-yl)-1-(3-(2-(methylsulfonamido)-2-oxoethoxy)phenyl)ethyl)-N-methylacetamide] stands at most 50 nM.
Under `CN(C(=O)Cc1ccc2c(c1)NC(=O)CS2)[C@H](CN1CC[C@H](O)C1)c1cccc(OCC(N)=O)c1` [Example 175, N-((S)-1-(3-(2-amino-2-oxoethoxy)phenyl)-2-((S)-3-hydroxypyrrolidin-1-yl)ethyl)-N-methyl-2-(3-oxo-3,4-dihydro-2H-benzo[b][1,4]thiazin-6-yl)acetamide] stands at most 50 nM.
Under `CN(C(=O)Cc1ccc2oc(=O)[nH]c2c1)[C@H](CN1CC[C@H](O)C1)c1cccc(C(=O)O)c1` [Example 176, 3-((S)-2-((S)-3-hydroxypyrrolidin-1-yl)-1-(N-methyl-2-(2-oxo-2,3-dihydrobenzo[d]oxazol-5-yl)acetamido)ethyl)benzoic acid] stands at most 50 nM; under `CN(C(=O)Cc1ccc2c(c1)NC(=O)C2)[C@H](CN1CC[C@H](O)C1)c1cccc(C(=O)NS(C)(=O)=O)c1` [Example 177, 3-((S)-2-((S)-3-hydroxypyrrolidin-1-yl)-1-(N-methyl-2-(2-oxoindolin-6-yl)acetamido)ethyl)-N-(methylsulfonyl)benzamide], at most 50 nM.
As to `CN(C(=O)Cc1ccc2c(c1)NC(=O)C2)[C@H](CN1CC[C@H](O)C1)c1cccc(-c2noc(C(F)(F)F)n2)c1` [Example 179, N-((S)-2-((S)-3-hydroxypyrrolidin-1-yl)-1-(3-(5-(trifluoromethyl)-1,2,4-oxadiazol-3-yl)phenyl)ethyl)-N-methyl-2-(2-oxoindolin-6-yl)acetamide], the EC50 is at most 50 nM.
With `C#Cc1cccc([C@@H](CN2CC[C@H](O)C2)N(C)C(=O)Cc2ccc3c(c2)NC(=O)C3)c1` [Example 180, N-((S)-1-(3-ethynylphenyl)-2-((S)-3-hydroxypyrrolidin-1-yl)ethyl)-N-methyl-2-(2-oxoindolin-6-yl)acetamide] the figure was at most 50 nM; with `Cc1nc(-c2cccc([C@@H](CN3CC[C@H](O)C3)N(C)C(=O)Cc3ccc4c(c3)NS(=O)(=O)C4)c2)no1` [Example 181, 2-(2,2-dioxido-1,3-dihydrobenzo[c]isothiazol-6-yl)-N-((S)-2-((S)-3-hydroxypyrrolidin-1-yl)-1-(3-(5-methyl-1,2,4-oxadiazol-3-yl)phenyl)ethyl)-N-methylacetamide], at most 50 nM; with `C#Cc1cccc([C@@H](CN2CC[C@H](O)C2)N(C)C(=O)Cc2ccc3c(c2)NS(=O)(=O)C3)c1` [Example 182, 2-(2,2-dioxido-1,3-dihydrobenzo[c]isothiazol-6-yl)-N-((S)-1-(3-ethynylphenyl)-2-((S)-3-hydroxypyrrolidin-1-yl)ethyl)-N-methylacetamide], at most 50 nM.
With `Cc1nc(-c2cccc([C@@H](CN3CC[C@H](O)C3)N(C)C(=O)Cc3ccc4sc(=O)[nH]c4c3)c2)no1` [Example 183, N-((S)-2-((S)-3-hydroxypyrrolidin-1-yl)-1-(3-(5-methyl-1,2,4-oxadiazol-3-yl)phenyl)ethyl)-N-methyl-2-(2-oxo-2,3-dihydrobenzo[d]thiazol-5-yl)acetamide] the figure was at most 50 nM.
With `CN(C(=O)Cc1ccc2sc(=O)[nH]c2c1)[C@H](CN1CC[C@H](O)C1)c1cccc(-c2noc(C(F)(F)F)n2)c1` [Example 184, N-((S)-2-((S)-3-hydroxypyrrolidin-1-yl)-1-(3-(5-(trifluoromethyl)-1,2,4-oxadiazol-3-yl)phenyl)ethyl)-N-methyl-2-(2-oxo-2,3-dihydrobenzo[d]thiazol-5-yl)acetamide] the figure was at most 50 nM; with `CN(C(=O)Cc1ccc2c(c1)NC(=O)C2)[C@H](CN1CC[C@H](O)C1)c1cccc(-c2ncon2)c1` [Example 185, N-((S)-1-(3-(1,2,4-oxadiazol-3-yl)phenyl)-2-((S)-3-hydroxypyrrolidin-1-yl)ethyl)-N-methyl-2-(2-oxoindolin-6-yl)acetamide 2,2,2-trifluoroacetate], at most 50 nM; with `CN(C(=O)Cc1ccc2c(c1)NS(=O)(=O)C2)[C@H](CN1CC[C@H](O)C1)c1cccc(-c2ncon2)c1` [Example 186, N-((S)-1-(3-(1,2,4-oxadiazol-3-yl)phenyl)-2-((S)-3-hydroxypyrrolidin-1-yl)ethyl)-2-(2,2-dioxido-1,3-dihydrobenzo[c]isothiazol-6-yl)-N-methylacetamide], at most 50 nM.
The molecule `CN(C(=O)Cc1ccc2c(c1)NS(=O)(=O)C2)[C@H](CN1CC[C@H](O)C1)c1cccc(-c2noc(C(F)(F)F)n2)c1` [Example 187, 2-(2,2-dioxido-1,3-dihydrobenzo [c]isothiazol-6-yl)-N-((S)-2-((S)-3-hydroxypyrrolidin-1-yl)-1-(3-(5-(trifluoromethyl)-1,2,4-oxadiazol-3-yl)phenyl)ethyl)-N-methylacetamide 2,2,2-trifluoroacetate] gave an EC50 of at most 50 nM.
Under `CCN(CC)C(=O)c1cccc([C@@H](CN2CC[C@H](O)C2)N(C)C(=O)Cc2ccc3sc(=O)[nH]c3c2)c1` [Example 188, N,N-diethyl-3-((S)-2-((S)-3-hydroxypyrrolidin-1-yl)-1-(N-methyl-2-(2-oxo-2,3-dihydrobenzo[d]thiazol-5-yl)acetamido)ethyl)benzamide] stands at most 50 nM.
Under `CN(C(=O)Cc1ccc2sc(=O)[nH]c2c1)[C@H](CN1CC[C@H](O)C1)c1cccc(-c2ncon2)c1` [Example 189, N-((S)-1-(3-(1,2,4-oxadiazol-3-yl)phenyl)-2-((S)-3-hydroxypyrrolidin-1-yl)ethyl)-N-methyl-2-(2-oxo-2,3-dihydrobenzo[d]thiazol-5-yl)acetamide 2,2,2-trifluoroacetate] stands at most 50 nM; under `CN(C(=O)Cc1ccc2ncc(=O)[nH]c2c1)[C@H](CN1CC[C@H](O)C1)c1cccc(-c2ncon2)c1` [Example 190, N-((S)-1-(3-(1,2,4-oxadiazol-3-yl)phenyl)-2-((S)-3-hydroxypyrrolidin-1-yl)ethyl)-N-methyl-2-(3-oxo-3,4-dihydroquinoxalin-6-yl)acetamide 2,2,2-trifluoroacetate], at most 50 nM.
Under `CN(C(=O)Cc1ccc2sc(=O)[nH]c2c1)[C@H](CN1CC[C@H](O)C1)c1cccc(-c2ncc[nH]2)c1` [Example 191, N-((S)-1-(3-(1H-imidazol-2-yl)phenyl)-2-((S)-3-hydroxypyrrolidin-1-yl)ethyl)-N-methyl-2-(2-oxo-2,3-dihydrobenzo[d]thiazol-5-yl)acetamide] stands at most 50 nM; under `CN(C(=O)Cc1ccc2sc(=O)[nH]c2c1)[C@H](CN1CC[C@H](O)C1)c1cccc(-c2nccs2)c1` [Example 192, N-((S)-2-((S)-3-hydroxypyrrolidin-1-yl)-1-(3-(thiazol-2-yl)phenyl)ethyl)-N-methyl-2-(2-oxo-2,3-dihydrobenzo[d]thiazol-5-yl)acetamide], 101 to 1000 nM; under `Cc1nc(-c2cccc([C@@H](CN3CC[C@H](O)C3)N(C)C(=O)Cc3ccc4ncc(=O)[nH]c4c3)c2)no1` [Example 194, N-((S)-2-((S)-3-hydroxypyrrolidin-1-yl)-1-(3-(5-methyl-1,2,4-oxadiazol-3-yl)phenyl)ethyl)-N-methyl-2-(3-oxo-3,4-dihydroquinoxalin-6-yl)acetamide], at most 50 nM.

In general, EC50 refers to the concentration that produces a half-maximal response. A higher EC50 goes with lower potency in that assay.
